Data as given in ChEMBL document CHEMBL1201862, “PubChem BioAssay data set” (2004).
The source made the active and inactive calls.

Experiments:
[1] = target: Eukaryotic translation initiation factor 4E (Mus musculus, UniProt P63073); assay: eIF4E–eIF4G protein interaction inhibitors, dose response, biochemical, TR-FRET (AID 855); format: functional;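 also: potency for disrupting eIF4E binding to eIF4GI seen as loss of FRET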
[2] = target: T1, E3 ubiquitin-protein ligase XIAP (Homo sapiens, UniProt P98170); assay: Counter Screen using XIAP-Bir3 for Chemical Antagonists of Bir1/2 domains of IAP-family anti-apoptotic proteins. [Related pubchem assays (depositor defined):AID1018, AID1449, AID1514, AID1638, AID1749, AID1750, AID488957, AID488963]
[3] = target: T1, E3 ubiquitin-protein ligase XIAP; assay: XIAP antagonists, biochemical, IAP family, fluorescence polarization (AID 1018); format: functional
[4] = target: T2, Estrogen receptor beta (Homo sapiens, UniProt Q92731);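 also: recombinant ER-beta bound to coactivator SRC1 peptide in presence of estradiol agonist; inhibitors block coactivator peptide binding and lower the FRET signal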
[5] = target: T2, Estrogen receptor beta; assay: ERβ–SRC-3 coactivator interaction inhibitors, confirmation, orthogonal assay, biochemical, ELISA, streptavidin-HRP readout (AID 1060)
[6] = target: Voltage-dependent T-type calcium channel subunit alpha-1H (Homo sapiens, UniProt O95180); format: functional;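 also: channel activity triggered by adding a high calcium stimulation buffer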
[7] = inhibitors of Vif binding to APOBEC3G peptide, primary screen, biochemical, TR-FRET, GST-Vif 1-94, biotin-A3G peptide, dose response retest (AID 1117319); format: functional;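 also: TR-FRET signal of purified GST-Vif binding a biotinylated A3G peptide; inhibitors lower the FRET signal by blocking Vif and A3G binding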
[8] = HEp-2 cell cytotoxicity, dose response, cytotoxicity control for RSV inhibitor project, HTS (AID 2410); format: functional; conditions: human respiratory syncytial virus
[9] = cells
[10] = target: T3, Bcl-2-related protein A1 (Mus musculus, UniProt Q07440); format: functional;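 also: confirmatory dose–response counterscreen on Bfl-1, used to check hits from a UBC13 polyubiquitin inhibitor campaign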
T3 sequence (Q07440 whole entry): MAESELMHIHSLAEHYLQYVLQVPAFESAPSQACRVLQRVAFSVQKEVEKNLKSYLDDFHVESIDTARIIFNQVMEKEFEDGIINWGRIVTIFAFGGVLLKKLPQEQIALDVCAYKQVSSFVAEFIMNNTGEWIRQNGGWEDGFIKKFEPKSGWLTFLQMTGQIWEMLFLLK

[11] = target: T4, Ubiquitin-conjugating enzyme E2 N (Homo sapiens, UniProt P61088); format: functional;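 also: Dose-response confirmation in a TR-FRET assay detecting UBC13-driven polyubiquitin chain formation, inhibition measured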
T4 sequence (P61088 whole entry): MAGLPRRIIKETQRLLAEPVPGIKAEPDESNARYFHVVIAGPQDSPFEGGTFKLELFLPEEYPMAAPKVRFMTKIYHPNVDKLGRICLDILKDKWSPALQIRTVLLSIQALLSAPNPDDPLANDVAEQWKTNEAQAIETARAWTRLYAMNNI

[12] = Luminescence Cell-Based Dose Confirmation HTS to Identify Activators of 5'UTR Stem-Loop Driven Alpha-Synuclein mRNA Translation in H4 Neuroglioblastoma Cells. [Related pubchem assays: 1829 (Project Summary), 1814 (Primary HTS)]; format: functional
[13] = Luminescence Cell-Based Dose Response HTS to Identify Activators of Luciferase Translation or Activity in H4 […] Cells. [Related pubchem assays: 1829 (Project Summary), 1814 (Primary HTS)]; format: functional
[14] = test system: H4; assay: Luminescence Cell-Based Dose Response HTS to Identify Activators of 5'UTR Stem-Loop Driven Prion Protein mRNA Translation in H4 Neuroglioblastoma Cells. [Related pubchem assays: 1829 (Project Summary), 1814 (Primary HTS)]; format: functional; conditions: Homo sapiens
[15] = target: T5, Short transient receptor potential channel 4 (Mus musculus, UniProt Q9QUQ5); assay: mouse TRPC4 channel activators, dose response, cell-based, HEK293 TRPC4/mu-opioid, Fluo-4 calcium (AID 434937); format: functional
T5 sequence (Q9QUQ5 whole entry): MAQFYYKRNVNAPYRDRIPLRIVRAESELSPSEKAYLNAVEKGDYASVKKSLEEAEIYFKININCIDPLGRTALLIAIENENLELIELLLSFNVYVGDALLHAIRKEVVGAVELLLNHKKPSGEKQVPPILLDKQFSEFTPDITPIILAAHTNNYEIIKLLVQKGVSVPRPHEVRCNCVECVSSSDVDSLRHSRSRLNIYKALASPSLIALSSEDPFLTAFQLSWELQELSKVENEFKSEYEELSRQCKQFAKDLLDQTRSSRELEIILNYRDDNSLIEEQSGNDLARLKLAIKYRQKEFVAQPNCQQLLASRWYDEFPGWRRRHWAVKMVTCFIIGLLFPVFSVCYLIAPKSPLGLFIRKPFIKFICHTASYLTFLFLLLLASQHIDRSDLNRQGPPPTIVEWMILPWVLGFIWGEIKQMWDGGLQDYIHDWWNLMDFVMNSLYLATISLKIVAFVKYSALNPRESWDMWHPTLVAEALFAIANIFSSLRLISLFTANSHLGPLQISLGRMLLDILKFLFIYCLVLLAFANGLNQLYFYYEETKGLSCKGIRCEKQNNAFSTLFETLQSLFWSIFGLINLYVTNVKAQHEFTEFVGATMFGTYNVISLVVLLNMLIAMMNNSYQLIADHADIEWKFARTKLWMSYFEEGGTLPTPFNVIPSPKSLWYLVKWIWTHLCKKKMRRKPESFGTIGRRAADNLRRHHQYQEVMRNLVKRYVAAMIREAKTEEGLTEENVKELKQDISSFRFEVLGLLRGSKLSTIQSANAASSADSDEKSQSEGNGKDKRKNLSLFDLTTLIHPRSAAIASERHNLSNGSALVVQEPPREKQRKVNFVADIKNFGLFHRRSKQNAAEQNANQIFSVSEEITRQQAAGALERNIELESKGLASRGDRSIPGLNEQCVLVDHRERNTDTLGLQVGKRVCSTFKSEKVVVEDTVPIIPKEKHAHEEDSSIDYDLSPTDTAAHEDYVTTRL

[16] = P. falciparum late gametocyte killing, dose response, luminescence (AID 1117278); format: functional, cell-based;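 also: gametocytes exposed to compound for 24 hours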
[17] = Jurkat T cell cytotoxicity, dose response, cytotoxicity control for P. falciparum gametocyte viability project, luminescence (AID 1117277); format: functional, cell-based;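 also: potency reflects loss of cellular ATP meaning fewer viable cells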
[18] = test system: Vero; assay: cells; format: functional, cell-based; conditions: Chlorocebus sabaeus
[19] = microbe, parasite or virus in culture; format: functional; conditions: Mycobacterium tuberculosis
[20] = THP-1 cell cytotoxicity, dose response, cytotoxicity control for non-replicating M. tuberculosis project (AID 489025); format: functional
[21] = HepG2 cell cytotoxicity, dose response, cytotoxicity control for non-replicating M. tuberculosis project (AID 489018); format: functional; conditions: Mycobacterium tuberculosis
[22] = Vero E6 cell cytotoxicity, dose response, cytotoxicity control for non-replicating M. tuberculosis project, secondary assay (AID 492998); format: functional, VeroE6; conditions: Vero C1008
[23] = cells; format: functional
[24] = test system: Vero; assay: cells; format: functional; conditions: Chlorocebus sabaeus
[25] = test system: Streptococcus sp. 'group A'; assay: growth inhibition of control SK(-) GAS strain, dose response, counter-screen for streptokinase expression inhibitor project, luminescence, kanamycin, BacTiterGlo, confirmation (AID 1900); format: functional, organism-based
[26] = target: T6, Streptokinase A (Streptococcus pyogenes serotype M1, UniProt P10520); assay: S. pyogenes streptokinase expression inhibitors, potency, dose response, plasminogen activation absorbance, OD405 (AID 1914); format: functional, Streptococcus pyogenes M1 GAS;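 also: secreted streptokinase activity via plasminogen activation per viability signal from cell pellet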
T6 sequence (P10520 whole entry): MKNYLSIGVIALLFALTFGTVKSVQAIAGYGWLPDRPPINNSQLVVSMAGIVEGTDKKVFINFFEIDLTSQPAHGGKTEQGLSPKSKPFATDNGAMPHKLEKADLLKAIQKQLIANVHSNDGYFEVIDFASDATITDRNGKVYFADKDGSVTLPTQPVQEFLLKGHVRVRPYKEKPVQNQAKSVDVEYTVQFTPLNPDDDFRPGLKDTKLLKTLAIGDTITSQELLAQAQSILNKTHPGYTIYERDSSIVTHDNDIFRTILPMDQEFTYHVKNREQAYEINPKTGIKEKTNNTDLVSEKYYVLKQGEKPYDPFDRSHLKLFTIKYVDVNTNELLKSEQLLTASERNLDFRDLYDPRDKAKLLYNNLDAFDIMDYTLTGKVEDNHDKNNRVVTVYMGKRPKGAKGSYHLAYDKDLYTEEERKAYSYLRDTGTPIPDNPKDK

[27] = test system: Streptococcus; assay: Group A Streptococcus viability loss, dose response, counter-screen for streptokinase expression inhibitor project, luminescence, BacTiterGlo (AID 1915); format: functional, organism-based;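 also: potency for reduction of bacterial viability or growth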

Chain of Voltage-dependent T-type calcium channel subunit alpha-1H (O95180 whole entry): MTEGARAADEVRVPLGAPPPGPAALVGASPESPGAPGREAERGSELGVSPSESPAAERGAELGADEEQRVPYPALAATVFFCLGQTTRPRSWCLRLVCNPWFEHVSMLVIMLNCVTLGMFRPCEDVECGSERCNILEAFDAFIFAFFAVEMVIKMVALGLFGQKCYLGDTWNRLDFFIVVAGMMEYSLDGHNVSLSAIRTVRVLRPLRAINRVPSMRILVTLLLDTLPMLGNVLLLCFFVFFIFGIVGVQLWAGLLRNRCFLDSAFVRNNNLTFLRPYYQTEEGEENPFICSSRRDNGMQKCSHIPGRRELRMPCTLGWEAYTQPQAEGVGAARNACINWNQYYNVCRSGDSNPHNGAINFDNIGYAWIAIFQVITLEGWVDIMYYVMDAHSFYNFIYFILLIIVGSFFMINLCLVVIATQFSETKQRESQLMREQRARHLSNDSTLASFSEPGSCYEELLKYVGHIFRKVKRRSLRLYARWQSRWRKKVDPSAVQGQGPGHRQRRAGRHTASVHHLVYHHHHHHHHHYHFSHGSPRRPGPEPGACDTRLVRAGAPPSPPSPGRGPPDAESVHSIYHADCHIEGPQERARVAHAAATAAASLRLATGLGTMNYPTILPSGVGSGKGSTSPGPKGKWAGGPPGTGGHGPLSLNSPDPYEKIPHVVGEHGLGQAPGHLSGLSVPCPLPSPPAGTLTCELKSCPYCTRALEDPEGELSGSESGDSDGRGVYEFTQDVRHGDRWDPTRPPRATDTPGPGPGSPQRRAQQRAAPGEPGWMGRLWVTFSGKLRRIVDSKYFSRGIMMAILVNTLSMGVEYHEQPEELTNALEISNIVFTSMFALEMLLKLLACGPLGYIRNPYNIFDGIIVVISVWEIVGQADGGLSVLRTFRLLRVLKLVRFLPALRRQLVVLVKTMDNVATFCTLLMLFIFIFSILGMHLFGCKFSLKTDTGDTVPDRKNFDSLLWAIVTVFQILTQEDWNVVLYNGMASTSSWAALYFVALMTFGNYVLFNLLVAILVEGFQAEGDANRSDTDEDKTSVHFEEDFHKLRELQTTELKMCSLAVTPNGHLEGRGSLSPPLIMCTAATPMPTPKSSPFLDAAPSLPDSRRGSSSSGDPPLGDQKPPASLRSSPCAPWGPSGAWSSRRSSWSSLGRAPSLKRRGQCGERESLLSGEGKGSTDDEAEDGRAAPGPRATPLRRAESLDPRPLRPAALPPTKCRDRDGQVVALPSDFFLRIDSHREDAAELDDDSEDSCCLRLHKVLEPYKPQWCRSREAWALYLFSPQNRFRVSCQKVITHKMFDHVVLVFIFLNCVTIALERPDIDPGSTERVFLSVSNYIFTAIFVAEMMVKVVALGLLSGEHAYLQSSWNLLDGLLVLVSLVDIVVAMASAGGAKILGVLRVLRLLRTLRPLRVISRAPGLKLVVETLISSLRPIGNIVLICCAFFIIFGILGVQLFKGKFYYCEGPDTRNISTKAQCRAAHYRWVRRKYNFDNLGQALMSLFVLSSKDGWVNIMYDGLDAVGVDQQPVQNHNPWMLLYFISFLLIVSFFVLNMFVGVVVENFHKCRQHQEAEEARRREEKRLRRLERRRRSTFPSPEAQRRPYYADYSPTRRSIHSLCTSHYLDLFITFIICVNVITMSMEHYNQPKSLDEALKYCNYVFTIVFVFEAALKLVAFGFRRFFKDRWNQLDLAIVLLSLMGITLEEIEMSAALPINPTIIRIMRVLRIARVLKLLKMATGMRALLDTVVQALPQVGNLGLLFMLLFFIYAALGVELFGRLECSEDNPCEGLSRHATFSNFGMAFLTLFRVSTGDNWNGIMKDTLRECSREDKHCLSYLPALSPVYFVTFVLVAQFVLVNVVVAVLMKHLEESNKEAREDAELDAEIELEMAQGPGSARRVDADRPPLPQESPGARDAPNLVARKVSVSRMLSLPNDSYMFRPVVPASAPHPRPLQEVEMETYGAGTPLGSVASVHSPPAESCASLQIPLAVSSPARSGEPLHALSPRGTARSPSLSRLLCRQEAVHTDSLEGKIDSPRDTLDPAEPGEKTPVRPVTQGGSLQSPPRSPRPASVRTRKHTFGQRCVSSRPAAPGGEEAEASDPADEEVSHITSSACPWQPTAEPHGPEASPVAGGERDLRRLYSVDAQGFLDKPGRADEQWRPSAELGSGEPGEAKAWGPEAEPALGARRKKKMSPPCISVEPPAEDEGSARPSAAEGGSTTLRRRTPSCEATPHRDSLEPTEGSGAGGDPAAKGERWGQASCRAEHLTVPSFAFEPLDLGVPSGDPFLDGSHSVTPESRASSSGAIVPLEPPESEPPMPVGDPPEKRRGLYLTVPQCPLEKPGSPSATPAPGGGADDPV
T1 sequence (P98170 whole entry): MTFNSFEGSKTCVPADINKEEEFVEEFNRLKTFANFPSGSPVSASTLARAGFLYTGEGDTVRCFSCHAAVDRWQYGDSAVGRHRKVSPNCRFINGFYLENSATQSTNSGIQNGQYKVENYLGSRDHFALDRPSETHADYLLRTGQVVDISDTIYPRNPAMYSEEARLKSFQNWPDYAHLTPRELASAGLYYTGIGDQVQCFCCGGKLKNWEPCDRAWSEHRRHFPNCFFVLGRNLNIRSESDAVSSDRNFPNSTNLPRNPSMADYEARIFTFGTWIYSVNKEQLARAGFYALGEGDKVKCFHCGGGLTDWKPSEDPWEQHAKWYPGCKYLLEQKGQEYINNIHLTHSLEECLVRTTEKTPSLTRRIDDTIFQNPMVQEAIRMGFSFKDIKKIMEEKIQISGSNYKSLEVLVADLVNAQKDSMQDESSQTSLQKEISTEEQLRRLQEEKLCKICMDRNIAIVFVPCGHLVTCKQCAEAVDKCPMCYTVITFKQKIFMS
T2 sequence (Q92731 whole entry): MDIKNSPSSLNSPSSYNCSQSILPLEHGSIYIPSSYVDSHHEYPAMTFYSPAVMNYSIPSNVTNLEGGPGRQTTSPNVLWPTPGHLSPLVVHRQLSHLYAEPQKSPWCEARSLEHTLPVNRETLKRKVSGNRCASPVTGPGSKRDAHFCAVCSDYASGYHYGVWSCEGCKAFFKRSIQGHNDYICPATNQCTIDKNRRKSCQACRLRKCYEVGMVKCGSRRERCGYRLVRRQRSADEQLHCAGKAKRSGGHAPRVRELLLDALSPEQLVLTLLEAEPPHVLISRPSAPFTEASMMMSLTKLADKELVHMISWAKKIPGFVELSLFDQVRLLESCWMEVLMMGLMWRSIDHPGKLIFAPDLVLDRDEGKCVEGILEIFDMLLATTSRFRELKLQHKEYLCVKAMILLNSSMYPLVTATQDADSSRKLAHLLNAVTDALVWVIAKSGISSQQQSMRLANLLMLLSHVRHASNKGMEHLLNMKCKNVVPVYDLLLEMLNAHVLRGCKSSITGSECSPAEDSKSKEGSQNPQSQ
Chain of Eukaryotic translation initiation factor 4E (P63073 whole entry): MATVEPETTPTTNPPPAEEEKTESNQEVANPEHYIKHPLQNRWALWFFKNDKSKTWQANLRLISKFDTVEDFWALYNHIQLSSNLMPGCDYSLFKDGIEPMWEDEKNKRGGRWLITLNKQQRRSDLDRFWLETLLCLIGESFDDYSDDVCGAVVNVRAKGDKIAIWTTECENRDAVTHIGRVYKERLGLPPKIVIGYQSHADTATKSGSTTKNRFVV

With `COC(=O)CSc1nnc(-c2cccc(NC(=O)c3ccc(C)cc3)c2)n1C` the IC50 [1] was > 64 µM (inactive).
For `Cc1cc(C)nc(N2CCCC(C(=O)Nc3cc(F)ccc3C)C2)n1` (stereo not given), the IC50 [2] was > 100 µM (inactive) and the IC50 [3] was > 100 µM (not active).
For `Nc1c(Cl)cc(Cl)cc1C(=O)OCC(=O)NC1CC1`, the IC50 [4] was 26.5 µM (active) and the IC50 [5] was < 0.023 µM (not active).
With `O=C(CSCC(=O)N1CCN(c2ccccc2)CC1)Nc1nc(-c2ccc(Cl)s2)cs1` the EC50 [6] was 4.28 µM (active).
In the case of `COc1cc(C(=O)NCc2ccc(C(=O)NCC(OC)OC)cc2)cc(OC)c1OC`, the IC50 [1] is reported as 50 µM (inactive).
With `COCCNC(C)C(=O)C12CC3CC(CC(C3)C1)C2` (stereo not given) the IC50 [7] was > 100 µM (active).
With `O=S(=O)(c1cccc(-c2csc(-c3ccccc3)n2)c1)N1CCOCC1` the CC50 [8] was 37.8 µM (active) and the IC50 [9] was 28.4 µM (active).
For `N#Cc1ccc(OCC(=O)NNC(=S)NC(=O)C2CC2)cc1`, the IC50 [10] was > 20 µM (inactive) and the IC50 [11] was 6.5 µM (active).
For `CCCC(c1nnnn1CC(=O)OCC)N(Cc1cc2c(C)cc(C)cc2nc1O)C1CCCC1` (stereo not given), the IC50 [9] was 6.29 µM (active).
For `Cc1nn(Cc2ccc(Cl)c(Cl)c2)c(C)c1NC(=O)c1cc(-c2ccco2)on1`, the EC50 [6] was 1.35 µM (active).
For `O=C(NCc1cccs1)c1noc2c1CCCCC2`, the IC50 [2] was > 100 µM (inactive) and the IC50 [3] was > 100 µM (not active).
In the case of `Cc1cc(CNC(=O)COc2ccccc2)c2ccccc2n1`, the IC50 [2] is reported as > 100 µM (inactive) and the IC50 [3] is reported as > 100 µM (not active).
With `CSc1nnc(Cn2c(=O)sc3ccccc32)n1-c1cccc(Cl)c1` the CC50 [8] was > 50 µM (active) and the IC50 [9] was 8.48 µM (active).
For `Clc1ccc2sc(C3CCNCC3)nc2c1`, the EC50 [12] was 0.141 µM (active), the EC50 [13] was 42.4 µM (active) and the EC50 [14] was 0.168 µM (active). For the same molecule, the EC50 [15] was 0.008 µM (active).
For `Cc1cc(C)n(Cc2ccc(Cl)nc2)n1`, the IC50 [16] was > 109 µM (inactive) and the IC50 [17] was > 83.3 µM (inactive).
With `C=CCN1C(=O)CSc2ccc(C(=O)NCc3ccco3)cc21` the IC50 [7] was > 100 µM (active).
For `COC(=O)c1sc(NC(=O)c2ccc(Cn3cc(Cl)cn3)o2)c(C#N)c1C`, the IC50 [7] was > 100 µM (active).
For `Cc1ccc(Nc2nc(=O)c3cccnc3s2)c(Br)c1`, the CC50 [8] was 22.8 µM (active), the IC50 [18] was > 25 µM (active) and the IC50 [9] was 25 µM (active).
With `Cc1cccc(/C=C/c2onc(C)c2[N+](=O)[O-])n1` the CC50 [19] was 14.3 µM (active), the CC50 [20] was 7.76 µM (active) and the CC50 [21] was > 20 µM (active). The CC50 [22] was 6.87 µM (active), the IC50 [23] was 8.06 µM (active) and the CC50 [24] was 13.8 µM (active).
For `Cc1ccc(Nc2nc3ccccc3nc2-n2nc(C)cc2C)cc1`, the IC50 [1] was > 64 µM (inactive).
For `CC1Cc2ccccc2N1C(=O)c1cc2sccc2n1Cc1ccc(F)cc1` (stereo not given), the EC50 [6] was 5.86 µM (active).
With `O=C(N/N=C/c1cc([N+](=O)[O-])cc(Br)c1O)C12CC3CCC(CC(C3)C1)C2` the EC50 [25] was 4.67 µM (active), the EC50 [26] was > 150 µM (not active) and the EC50 [27] was 19.7 µM (active). The EC50 [15] was 2.99 µM (active) and the CC50 [24] was > 25 µM (active).
With `CC1CCCC(C)N1CC(=O)Nc1sc2c(c1C#N)CCCC2` (stereo not given) the IC50 [5] was 0.0372 µM (not active).
